Test results taken from patent US10703698B2, “Compounds which activate estrogen receptors and compositions and methods of using the same” (The Board of Trustees of the University of Illinois, priority 2016, dated 2020).

How the values were obtained:
[1] = biological target: T1, purified full-length human ERα (Homo sapiens, UniProt P03372); test: competitive radiometric binding assay, relative binding affinity (RBA); details: relative to estradiol = 100
T1 construct: using purified full-length human ERα and ERβ
T1 sequence (P03372 1-595): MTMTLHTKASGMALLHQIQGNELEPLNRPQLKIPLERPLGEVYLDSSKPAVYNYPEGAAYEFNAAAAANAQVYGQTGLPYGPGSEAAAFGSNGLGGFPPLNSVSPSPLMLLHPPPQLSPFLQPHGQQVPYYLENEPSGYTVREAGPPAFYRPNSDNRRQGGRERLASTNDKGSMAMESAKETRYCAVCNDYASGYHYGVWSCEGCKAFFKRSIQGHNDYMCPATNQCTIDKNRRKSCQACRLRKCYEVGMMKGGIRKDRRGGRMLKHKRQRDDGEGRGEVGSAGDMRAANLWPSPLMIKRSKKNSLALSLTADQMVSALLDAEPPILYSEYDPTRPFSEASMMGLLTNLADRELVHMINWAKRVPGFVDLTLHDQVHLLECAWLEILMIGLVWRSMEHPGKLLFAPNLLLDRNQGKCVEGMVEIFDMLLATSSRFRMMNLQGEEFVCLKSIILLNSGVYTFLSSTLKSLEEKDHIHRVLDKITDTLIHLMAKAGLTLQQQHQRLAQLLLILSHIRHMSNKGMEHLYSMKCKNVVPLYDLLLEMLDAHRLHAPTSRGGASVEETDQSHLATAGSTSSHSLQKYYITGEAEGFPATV
Text: (§1) FIG. 1. […] […]

[2] = biological target: T2, purified full-length human ERβ (Homo sapiens, UniProt Q92731); test: as above; details: relative to estradiol = 100
T2 construct: using purified full-length human ERα and ERβ
T2 sequence (Q92731 whole entry): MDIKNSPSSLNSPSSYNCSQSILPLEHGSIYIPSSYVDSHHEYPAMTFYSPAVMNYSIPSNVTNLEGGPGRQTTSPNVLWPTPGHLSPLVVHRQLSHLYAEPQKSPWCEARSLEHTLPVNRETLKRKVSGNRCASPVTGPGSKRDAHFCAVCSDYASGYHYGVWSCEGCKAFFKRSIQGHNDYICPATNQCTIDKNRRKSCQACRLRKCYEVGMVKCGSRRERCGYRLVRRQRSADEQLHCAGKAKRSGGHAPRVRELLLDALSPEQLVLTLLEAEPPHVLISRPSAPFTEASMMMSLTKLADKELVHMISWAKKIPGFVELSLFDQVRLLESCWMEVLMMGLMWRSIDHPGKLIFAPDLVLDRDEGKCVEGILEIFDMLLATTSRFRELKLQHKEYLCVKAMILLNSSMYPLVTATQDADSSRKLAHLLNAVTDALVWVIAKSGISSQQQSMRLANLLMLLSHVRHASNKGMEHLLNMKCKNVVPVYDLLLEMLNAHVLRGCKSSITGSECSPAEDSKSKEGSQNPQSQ
Text: as §1

PgR gene = test: PgR (genomic gene) mRNA expression, qPCR; details: MCF-7 cells; 1 μM PaPE or 10 nM E2 for 4 h where stated; versus vehicle or E2
Text: (§2) Quantitation of signal intensities is shown in panel at the right.

LRRC54 gene = test: LRRC54 (non-genomic gene) mRNA expression, qPCR; details: for LRRC54 (non-genomic gene) mRNA expression, in words: MCF-7 cells, 1 μM PaPE or 10 nM E2 for 4 h where stated, versus vehicle, E2 or compound 2
Text: as §2

LRRC54 gene vs PgR gene = test: preferential activation of non-genomic (LRRC54) over genomic (PgR) gene; details: relative to activation by E2
eNOS = eNOS activation in primary endothelial cells (14C-L-arginine to 14C-L-citrulline); format: cell-based, bovine; details: 15 min; 10 nM ligand (FIG. 9E)

Row | SMILES | ERα RBA (relative binding affinity) [1] | ERβ RBA (relative binding affinity) [2] | PgR (genomic gene) mRNA expression, in words (PgR gene) | LRRC54 stimulation compared to E2 (LRRC54 gene; FIG. 14) | LRRC54 (non-genomic gene) mRNA expression, in words (LRRC54 gene) | preference for activation of the non-genomic pathway (LRRC54 over PgR), in words (LRRC54 gene vs PgR gene) | eNOS / NOS activity (eNOS)
1 | O=C(c1ccc(OCCN2CCCCC2)cc1)c1c(-c2ccc(O)cc2)sc2cc(O)ccc12 [Raloxifene, reference compound] |  |  | blocks expression of both the non-genomic LRRC54 and genomic PgR genes |  | blocks expression of both the non-genomic LRRC54 and genomic PgR genes | Neither Raloxifene (RAL) nor hydroxytamoxifen (TOT) show selective activation of the non-genomic gene LRRC54 | 
2 | Cc1cc([C@H]2CC[C@@]3(C)[C@H](CC[C@@H]3O)C2)cc(C)c1O [Compound 43, (1S,3aR,5S,7aS)-5-(4-hydroxy-3,5-dimethylphenyl)-7a-methyloctahydro-1H-inden-1-ol] | <0.001 | 0.001 |  |  |  |  | 
3 | Cc1cc(-c2ccc(CO)c(F)c2)cc(C)c1O [Compound 25, 3′-fluoro-4′-(hydroxvmethyl)-3,5-dimethyl-[1,1′-biphenyl]-4-ol] | 0.003 ± 0 | 0.009 ± 0 |  |  |  |  | 
4 | Cc1cc(-c2ccc(CCO)cc2)cc(C)c1O [Compound 45, 4′-(2-hydroxyethyl)-3,5-dimethyl-[1,1′-biphenyl]-4-ol] | 0.001 | 0.002 |  |  | preferentially stimulate LRRC54 better than E2 |  | 
5 | Cc1cc(-c2ccc(CO)c(C(F)(F)F)c2)cc(C)c1O [Compound 27] | 0.003 ± 0.001 | 0.003 ± 0 | slight higher than the vehicle level |  |  |  | 
6 | Cc1cc(-c2cccc(CO)c2)cc(C)c1O [Compound 24] | 0.005 ± 0.001 | 0.004 ± 0 | slight higher than the vehicle level |  |  |  | 
7 | Cc1cc(-c2ccc(CO)cc2C(F)(F)F)cc(C)c1O [Compound 28] | 0.008 ± 0.002 | 0.013 ± 0.002 |  |  |  |  | 
8 | Cc1cc(-c2ccc(CO)c(O)c2)cc(C)c1O [Compound 60, 4-(hydroxymethyl)-3′,5′-dimethyl-[1,1′-biphenyl]-3,4′-diol] | <0.001 | ~0.001 |  |  | expression level is less than for compound 2 | selective expression of the non-genomic LRRC54 gene compared to E2 | 
9 | Cc1cc(-c2ccc(O)c(CO)c2)cc(C)c1O [Compound 59, 3′-(hydroxymethyl)-3,5-dimethyl-[1,1′-biphenyl]-4,4′-diol] |  |  |  |  | expression level is less than for compound 2 | selective expression of the non-genomic LRRC54 gene compared to E2 | 
10 | OCc1cc(-c2cc(Cl)c(O)c(Cl)c2)ccc1O [Compound 64, 3,5-Dichloro-3′-(hydroxymethyl)-[1,1′-biphenyl]-4,4′-diol] |  |  |  |  | expression level is less than for compound 2 | selective expression of the non-genomic LRRC54 gene compared to E2 | 
11 | OCc1cc(-c2ccc3c(c2)CCC3O)ccc1O (stereo not drawn) [Compound 57, 5-(4-hydroxy-3-(hydroxymethyl)phenyl)-2,3-dihydro-1H-inden-1-ol] |  |  |  |  | increases the expression of the non-genomic LRRC54 gene | considerable non-genomic gene selectivity | 
12 | CC(=O)NCCNC(=O)CCC(C)(c1ccc(O)cc1)c1ccc(O)cc1 [PaPE-4, Diphenolic acid-NHEtNHAc] |  |  |  |  |  |  | increased NOS activity
13 | Cc1cc(-c2cc(C)c(O)c(C)c2)ccc1CO [Compound 26] | <0.001 | 0.002 ± 0.001 | slight higher than the vehicle level |  |  |  | 
14 | Cc1cc(-c2cccc(CCO)c2)cc(C)c1O [Compound 44, 3′-(2-hydroxyethyl)-3,5-dimethyl-[1,1′-biphenyl]-4-ol] | 0.001 | 0.001 |  |  | preferentially stimulate LRRC54 better than E2 |  | 

Continued, in another order:

Row | ERα RBA (relative binding affinity) [1] | ERβ RBA (relative binding affinity) [2] | SMILES | PgR (genomic gene) mRNA expression, in words (PgR gene) | LRRC54 stimulation compared to E2 (LRRC54 gene; FIG. 14) | LRRC54 (non-genomic gene) mRNA expression, in words (LRRC54 gene) | preference for activation of the non-genomic pathway (LRRC54 over PgR), in words (LRRC54 gene vs PgR gene) | eNOS / NOS activity (eNOS)
15 | 0.005 ± 0.001 | 0.190 ± 0.04 | Oc1ccc(-c2ccc3c(c2)CCC3O)cc1 (stereo not drawn) [Compound 32] | stimulate PgR gene expression at a level close to that of E2 |  |  |  | 
16 | 0.001 ± 0 | 0.006 ± 0.001 | Cc1cc(-c2ccc3c(c2)CCC3Cl)cc(C)c1O (stereo not drawn) [Compound 8, 4-(1-chloro-2,3-dihydro-1H-inden-5-yl)-2,6-dimethylphenol] |  | 50% | stimulation of the nongenomic gene (LRRC54), but to a lesser degree than compound 2 |  | 
17 | 0.004 ± 0.001 | <0.001 | C#CC1(O)CCc2cc(-c3cc(C)c(O)c(C)c3)ccc21 (stereo not drawn) [Compound 19, 1-ethynyl-5-(4-hydroxy-3,5-dimethylphenyl)-2,3-dihydro-1H-inden-1-ol] |  |  |  |  | 
18 | 0.011 ± 0.003 | 0.755 ± 0.20 | Cc1cc(-c2ccc(O)cc2)cc(C)c1O [Compound 35] |  |  | principally loss of LRRC54 gene expression |  | 
19 | 0.002 ± 0.001 | 0.002 ± 0.001 | Cc1cc(-c2ccc(CO)cc2)cc(C)c1O [Compound 23] |  |  |  |  | 
20 | 0.002 ± 0.001 | 0.002 ± 0.001 | COC1CC(O)c2ccc(-c3cc(C)c(O)c(C)c3)cc21 (stereo not drawn) [Compound 30] | elevated both genomic and nongenomic gene expression to a higher level than does its parent compound 29 |  | elevated both genomic and nongenomic gene expression to a higher level than does its parent compound 29 |  | 
21 | 0.002 ± 0.001 | 0.004 ± 0.003 | Cc1cc(-c2ccc3c(c2)CCCC3O)cc(C)c1O (stereo not drawn) [Compound 16, 6-(4-hydroxy-3,5-dimethylphenyl)-1,2,3,4-tetrahydronaphthalen-1-ol] |  |  |  | some selectivity for the non-genomic gene but less than that of compound 2 | increased NOS activity
22 | 0.002 | 0.004 | Cc1cc(-c2ccc3c(c2)CCC3O)ccc1O (stereo not drawn) [Compound 55, 5-(4-hydroxy-3-methylphenyl)-2,3-dihydro-1H-inden-1-ol] | stimulated two fold greater than that with E2 |  |  |  | 
23 | <0.001 | <0.001 | Cc1cc(-c2ccc3c(c2)CCC3O)cc(CO)c1O (stereo not drawn) [Compound 56, 5-(4-hydroxy-3-(hydroxymethyl)-5-methylphenyl)-2,3-dihydro-1H-inden-1-ol] |  |  | increases the expression of the non-genomic LRRC54 gene | considerable non-genomic gene selectivity | 
24 | 0.003 ± 0.001 | 0.002 ± 0.001 | Cc1cc(-c2ccc3c(c2)CCC3C#N)cc(C)c1O (stereo not drawn) [Compound 9, 5-(4-hydroxy-3,5-dimethylphenyl)-2,3-dihydro-1H-indene-1-carbonitrile] |  |  | no non-genomic activity |  | 
25 | 0.005 | 0.006 | Oc1c(Cl)cc(-c2ccc3c(c2)CCC3O)cc1Cl (stereo not drawn) [Compound 63, 5-(3,5-dichloro-4-hydroxyphenyl)-2,3-dihydro-1H-inden-1-ol] |  |  | two-fold less than that of compound 2 | stimulates the non-genomic gene LRRC54 selectively | 
26 | 0.001 ± 0 | 0.002 ± 0.001 | Cc1cc(C)cc(-c2ccc3c(c2)CCC3O)c1 (stereo not drawn) [Compound 12, 5-(3,5-dimethylphenyl)-2,3-dihydro-1H-inden-1-ol] | strongly stimulate the genomic gene PgR |  | some non-genomic activity |  | 
